Compound in one experiment: NC(=O)CCCCC1CCSS1 [lipoamide]
In words: thermal stability z-score vs DMSO; higher = more thermally stabilized by treatment. The note with it: HeLa, lipoamide concentration 100 µM. The procedure:
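Cellular thermal proteome profiling in HeLa cells. Cells were treated with 100 µM lipoamide for 1 h, with or without 1 mM arsenate for a further 1 h, then heated to ten temperatures (37-66.3 °C), and soluble protein was quantified by TMT mass spectrometry relative to 0.1% DMSO controls. The thermal stability score (sum of log2 fold changes minus the abundance score) was transformed to a z-score; mean of n = 3 experiments.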

Compound in a further experiment: O=[As]([O-])(O)O.[K+] [potassium arsenate]
The description is as above. The note with it: HeLa; arsenate concentration 1 mM. The procedure:
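Cellular thermal proteome profiling in HeLa cells treated with 1 mM arsenate for 1 h (DMSO pretreatment), heated to ten temperatures (37-66.3 °C). Soluble protein was quantified by TMT mass spectrometry relative to DMSO controls; the thermal stability score was transformed to a z-score; mean of n = 3 experiments.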

Setting [1] is: arsenate co-treatment: 1 mM arsenate 1 h.
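Note: each temperature applied for 3 min, abundance score taken as mean log2 fold change at the two lowest temperatures, z-score obtained by mean subtraction and division by SD.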

Sequence of UniProt Q9UKY1 (Q9UKY1 whole entry): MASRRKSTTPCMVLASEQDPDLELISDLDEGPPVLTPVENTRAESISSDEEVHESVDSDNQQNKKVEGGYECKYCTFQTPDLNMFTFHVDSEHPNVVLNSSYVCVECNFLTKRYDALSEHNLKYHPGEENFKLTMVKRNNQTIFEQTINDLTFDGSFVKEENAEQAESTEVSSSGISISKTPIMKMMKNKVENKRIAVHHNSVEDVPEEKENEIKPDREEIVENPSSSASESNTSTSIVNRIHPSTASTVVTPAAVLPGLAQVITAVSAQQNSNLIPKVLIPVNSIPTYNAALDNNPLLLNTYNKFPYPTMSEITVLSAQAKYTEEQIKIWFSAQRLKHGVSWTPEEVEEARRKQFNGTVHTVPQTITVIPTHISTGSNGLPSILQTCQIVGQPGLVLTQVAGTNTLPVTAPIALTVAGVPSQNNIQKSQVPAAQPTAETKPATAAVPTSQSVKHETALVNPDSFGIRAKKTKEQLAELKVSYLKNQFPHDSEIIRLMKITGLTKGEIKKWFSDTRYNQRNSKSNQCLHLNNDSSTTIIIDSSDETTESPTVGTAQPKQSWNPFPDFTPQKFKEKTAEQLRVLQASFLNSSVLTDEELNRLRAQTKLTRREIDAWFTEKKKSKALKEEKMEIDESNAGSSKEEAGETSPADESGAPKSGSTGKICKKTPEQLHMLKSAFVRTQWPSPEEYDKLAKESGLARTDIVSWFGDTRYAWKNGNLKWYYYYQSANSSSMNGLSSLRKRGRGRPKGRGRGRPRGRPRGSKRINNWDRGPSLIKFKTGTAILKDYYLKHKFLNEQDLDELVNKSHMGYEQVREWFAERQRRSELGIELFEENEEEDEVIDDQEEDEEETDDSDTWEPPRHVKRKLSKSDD
Sequence of UniProt Q9Y5B6 (Q9Y5B6 whole entry): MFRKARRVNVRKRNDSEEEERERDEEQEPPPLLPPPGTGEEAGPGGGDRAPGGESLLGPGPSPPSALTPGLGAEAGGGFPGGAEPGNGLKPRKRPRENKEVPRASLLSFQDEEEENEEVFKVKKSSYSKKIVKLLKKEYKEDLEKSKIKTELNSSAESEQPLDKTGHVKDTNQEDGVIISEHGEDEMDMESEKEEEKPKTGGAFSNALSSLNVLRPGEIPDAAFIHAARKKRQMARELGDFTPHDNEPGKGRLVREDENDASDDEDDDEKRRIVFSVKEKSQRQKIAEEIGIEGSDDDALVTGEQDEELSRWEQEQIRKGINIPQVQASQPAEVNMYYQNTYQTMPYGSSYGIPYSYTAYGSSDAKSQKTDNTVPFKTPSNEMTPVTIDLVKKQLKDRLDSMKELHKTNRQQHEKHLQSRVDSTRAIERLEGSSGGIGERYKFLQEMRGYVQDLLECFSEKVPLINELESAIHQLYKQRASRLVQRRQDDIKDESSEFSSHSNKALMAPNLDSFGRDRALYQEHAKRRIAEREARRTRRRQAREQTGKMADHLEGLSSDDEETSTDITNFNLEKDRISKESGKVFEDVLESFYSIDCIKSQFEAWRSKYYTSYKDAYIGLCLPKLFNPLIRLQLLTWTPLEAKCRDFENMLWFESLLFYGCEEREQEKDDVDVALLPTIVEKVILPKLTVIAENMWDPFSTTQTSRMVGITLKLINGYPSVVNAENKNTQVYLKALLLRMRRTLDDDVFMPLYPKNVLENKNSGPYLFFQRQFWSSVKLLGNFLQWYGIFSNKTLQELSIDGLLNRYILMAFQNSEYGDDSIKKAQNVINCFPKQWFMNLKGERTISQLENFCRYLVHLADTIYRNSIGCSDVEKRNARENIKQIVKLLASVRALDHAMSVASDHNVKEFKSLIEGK
Sequence of UniProt Q9BTX3 (Q9BTX3 whole entry): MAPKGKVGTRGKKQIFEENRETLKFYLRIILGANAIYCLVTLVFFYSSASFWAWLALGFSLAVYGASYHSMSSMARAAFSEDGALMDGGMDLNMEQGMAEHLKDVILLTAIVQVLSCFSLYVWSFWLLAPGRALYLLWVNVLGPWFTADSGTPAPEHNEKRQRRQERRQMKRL
Sequence of UniProt P51692 (P51692 whole entry): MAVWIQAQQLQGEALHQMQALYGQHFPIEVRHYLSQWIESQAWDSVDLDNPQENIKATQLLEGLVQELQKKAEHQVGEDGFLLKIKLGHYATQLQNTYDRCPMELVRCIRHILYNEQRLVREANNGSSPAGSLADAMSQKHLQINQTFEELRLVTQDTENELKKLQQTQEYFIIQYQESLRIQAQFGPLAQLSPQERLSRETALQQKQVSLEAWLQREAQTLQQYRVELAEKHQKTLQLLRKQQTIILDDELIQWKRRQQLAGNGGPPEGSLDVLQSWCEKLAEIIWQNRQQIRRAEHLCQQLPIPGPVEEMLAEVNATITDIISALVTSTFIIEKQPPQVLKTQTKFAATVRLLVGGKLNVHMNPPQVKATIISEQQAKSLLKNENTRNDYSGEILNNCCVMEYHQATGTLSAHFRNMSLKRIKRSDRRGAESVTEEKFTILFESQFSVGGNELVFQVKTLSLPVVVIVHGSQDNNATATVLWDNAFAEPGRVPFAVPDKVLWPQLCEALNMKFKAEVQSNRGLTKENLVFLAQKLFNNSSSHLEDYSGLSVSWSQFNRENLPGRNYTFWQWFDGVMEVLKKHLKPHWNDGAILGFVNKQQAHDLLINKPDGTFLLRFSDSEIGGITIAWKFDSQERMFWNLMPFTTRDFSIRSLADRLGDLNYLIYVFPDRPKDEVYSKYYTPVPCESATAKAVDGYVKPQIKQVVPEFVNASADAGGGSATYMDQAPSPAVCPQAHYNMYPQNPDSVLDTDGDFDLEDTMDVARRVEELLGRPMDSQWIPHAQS
Sequence of UniProt Q86X83 (Q86X83 whole entry): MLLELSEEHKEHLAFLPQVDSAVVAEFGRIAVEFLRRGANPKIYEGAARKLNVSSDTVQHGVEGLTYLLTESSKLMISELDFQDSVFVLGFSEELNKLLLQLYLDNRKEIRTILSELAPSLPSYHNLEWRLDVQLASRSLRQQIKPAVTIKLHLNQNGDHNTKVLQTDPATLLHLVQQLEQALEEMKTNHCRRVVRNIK
Sequence of UniProt Q92804 (Q92804 whole entry): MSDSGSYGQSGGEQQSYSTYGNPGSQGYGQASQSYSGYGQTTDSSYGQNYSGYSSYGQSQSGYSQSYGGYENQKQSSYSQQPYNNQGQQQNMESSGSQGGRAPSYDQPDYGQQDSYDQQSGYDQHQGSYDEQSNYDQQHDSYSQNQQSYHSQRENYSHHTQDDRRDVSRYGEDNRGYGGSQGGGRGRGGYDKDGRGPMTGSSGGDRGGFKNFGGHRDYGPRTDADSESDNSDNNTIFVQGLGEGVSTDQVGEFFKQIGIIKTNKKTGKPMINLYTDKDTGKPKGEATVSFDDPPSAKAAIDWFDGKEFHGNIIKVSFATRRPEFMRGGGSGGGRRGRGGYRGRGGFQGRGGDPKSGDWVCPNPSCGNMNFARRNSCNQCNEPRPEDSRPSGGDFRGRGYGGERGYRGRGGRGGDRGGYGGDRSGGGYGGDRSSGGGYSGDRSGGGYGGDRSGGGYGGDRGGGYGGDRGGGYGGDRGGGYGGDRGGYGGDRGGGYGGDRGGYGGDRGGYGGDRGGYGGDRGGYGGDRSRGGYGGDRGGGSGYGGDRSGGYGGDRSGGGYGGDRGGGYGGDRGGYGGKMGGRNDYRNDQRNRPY
Sequence of UniProt Q6UVJ0 (Q6UVJ0 whole entry): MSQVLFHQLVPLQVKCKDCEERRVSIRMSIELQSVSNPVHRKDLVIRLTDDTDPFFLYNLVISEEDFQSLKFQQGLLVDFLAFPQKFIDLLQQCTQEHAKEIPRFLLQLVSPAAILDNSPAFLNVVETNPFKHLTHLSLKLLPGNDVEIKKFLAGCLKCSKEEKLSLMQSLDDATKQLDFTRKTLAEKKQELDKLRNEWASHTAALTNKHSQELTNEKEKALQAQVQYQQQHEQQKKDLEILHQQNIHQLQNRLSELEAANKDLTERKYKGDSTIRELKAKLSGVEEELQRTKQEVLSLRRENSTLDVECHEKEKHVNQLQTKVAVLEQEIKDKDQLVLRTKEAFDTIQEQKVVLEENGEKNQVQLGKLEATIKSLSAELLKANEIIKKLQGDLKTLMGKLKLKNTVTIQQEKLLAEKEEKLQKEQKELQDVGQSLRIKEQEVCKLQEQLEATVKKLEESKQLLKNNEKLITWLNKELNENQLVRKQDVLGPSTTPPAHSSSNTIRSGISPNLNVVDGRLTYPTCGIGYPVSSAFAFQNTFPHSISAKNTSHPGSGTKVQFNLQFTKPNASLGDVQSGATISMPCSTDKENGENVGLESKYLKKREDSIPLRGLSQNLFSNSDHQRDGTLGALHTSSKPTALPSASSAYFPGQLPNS
Sequence of UniProt O95758 (O95758 whole entry): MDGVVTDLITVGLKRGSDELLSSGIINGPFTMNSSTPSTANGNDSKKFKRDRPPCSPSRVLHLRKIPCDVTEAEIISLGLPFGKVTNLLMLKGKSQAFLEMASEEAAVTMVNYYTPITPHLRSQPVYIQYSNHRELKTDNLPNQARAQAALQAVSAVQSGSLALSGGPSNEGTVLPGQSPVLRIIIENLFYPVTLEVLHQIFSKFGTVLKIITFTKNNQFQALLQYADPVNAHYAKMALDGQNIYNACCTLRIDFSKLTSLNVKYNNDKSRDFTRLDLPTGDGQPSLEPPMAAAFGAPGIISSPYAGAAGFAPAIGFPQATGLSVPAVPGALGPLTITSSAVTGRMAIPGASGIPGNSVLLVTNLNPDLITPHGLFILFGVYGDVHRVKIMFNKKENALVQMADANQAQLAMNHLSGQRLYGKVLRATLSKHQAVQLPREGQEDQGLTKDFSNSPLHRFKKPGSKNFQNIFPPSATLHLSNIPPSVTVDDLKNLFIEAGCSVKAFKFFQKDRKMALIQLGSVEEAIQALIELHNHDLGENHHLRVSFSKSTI
Sequence of UniProt O14519 (O14519 whole entry): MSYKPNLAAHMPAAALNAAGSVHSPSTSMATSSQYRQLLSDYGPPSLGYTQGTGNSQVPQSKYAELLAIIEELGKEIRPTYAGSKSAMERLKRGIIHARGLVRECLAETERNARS

For PMM2 (UniProt O15305), the thermal stability z-score in the experiment with lipoamide (setting [1]) was -0.186; in the experiment with lipoamide (arsenate co-treatment: none), 0.197; with potassium arsenate, 1.4.

In the case of ZNHIT6 (UniProt Q9NWK9), the thermal stability z-score was 1.08 with lipoamide (setting [1]), 0.924 with lipoamide (arsenate co-treatment: none) and 0.0739 with potassium arsenate.

For OSBPL10 (UniProt Q9BXB5), the thermal stability z-score is -1.14 with lipoamide (setting [1]), -0.711 with lipoamide (arsenate co-treatment: none) and -1.41 with potassium arsenate.

FBXO22 (UniProt Q8NEZ5): the thermal stability z-score with lipoamide (setting [1]) was 0.0761; with lipoamide (arsenate co-treatment: none), -0.0297; with potassium arsenate, -0.412.

With TAF15 (UniProt Q92804), the thermal stability z-score in the experiment with lipoamide (setting [1]) came to 2.08; with lipoamide (arsenate co-treatment: none) it was 1.21; in the experiment with potassium arsenate, 1.34.

In the case of CDK2AP1 (UniProt O14519), the results for the thermal stability z-score in the experiment with lipoamide (setting [1]), in the experiment with lipoamide (arsenate co-treatment: none) and with potassium arsenate were -0.0893, -0.224 and -0.113, respectively.

Take SSSCA1 (UniProt O60232): the thermal stability z-score was determined as 1.33 with lipoamide (setting [1]), 1.12 with lipoamide (arsenate co-treatment: none) and 0.0653 with potassium arsenate.

Consider ACADSB (UniProt P45954), for which the thermal stability z-score with lipoamide (setting [1]) is 0.39; in the experiment with lipoamide (arsenate co-treatment: none) it was 0.509; in the experiment with potassium arsenate, 0.00788.

With PKMYT1 (UniProt Q99640), the thermal stability z-score in the experiment with lipoamide (setting [1]) is -0.143; with lipoamide (arsenate co-treatment: none), -0.144; with potassium arsenate, -0.0435.

For EDEM1 (UniProt Q92611), the thermal stability z-score in the experiment with lipoamide (setting [1]) is -0.0592; with lipoamide (arsenate co-treatment: none) it was -0.0491; in the experiment with potassium arsenate it was 0.0795.

For the target FAM49B (UniProt Q9NUQ9), the thermal stability z-score worked out at 0.4 with lipoamide (setting [1]), 0.0941 with lipoamide (arsenate co-treatment: none) and 0.0541 with potassium arsenate.

Turning to PAFAH1B2 (UniProt P68402), the thermal stability z-score in the experiment with lipoamide (setting [1]) is 0.526; with lipoamide (arsenate co-treatment: none), 0.289; with potassium arsenate it was -0.469.

For the target PSME4 (UniProt Q14997), the thermal stability z-score with lipoamide (setting [1]) was -0.196; in the experiment with lipoamide (arsenate co-treatment: none), -0.198; with potassium arsenate, -0.412.

On to FUBP1 (UniProt Q96AE4), for which the thermal stability z-score in the experiment with lipoamide (setting [1]) is 0.139; with lipoamide (arsenate co-treatment: none), 0.157; with potassium arsenate, 0.0234.

Consider ASAP1 (UniProt Q9ULH1), for which the thermal stability z-score with lipoamide (setting [1]) is 0.0666; with lipoamide (arsenate co-treatment: none), -0.0222; in the experiment with potassium arsenate, -0.0654.

On to ZHX1 (UniProt Q9UKY1), for which the thermal stability z-score in the experiment with lipoamide (setting [1]) is 0.0297; with lipoamide (arsenate co-treatment: none), 0.122; with potassium arsenate it was -0.0668.

Consider MED20 (UniProt Q9H944), for which the results for the thermal stability z-score in the experiment with lipoamide (setting [1]), in the experiment with lipoamide (arsenate co-treatment: none) and with potassium arsenate were 0.506, -0.154 and -0.226, respectively.

Turning to STAT5B (UniProt P51692), the thermal stability z-score with lipoamide (setting [1]) was -0.378; in the experiment with lipoamide (arsenate co-treatment: none) it was -0.11; with potassium arsenate it was 0.0458.

For PTBP3 (UniProt O95758), the figures for the thermal stability z-score with lipoamide (setting [1]), with lipoamide (arsenate co-treatment: none) and in the experiment with potassium arsenate were -0.713, 0.0298 and -0.772, respectively.

ZNF622 (UniProt Q969S3): the values for the thermal stability z-score in the experiment with lipoamide (setting [1]), with lipoamide (arsenate co-treatment: none) and with potassium arsenate were -0.153, -0.393 and 1.39, respectively.

For the target HERC4 (UniProt Q5GLZ8), the thermal stability z-score with lipoamide (setting [1]) is 0.298; with lipoamide (arsenate co-treatment: none) it was -0.11; with potassium arsenate, 0.726.

Turning to THOC6 (UniProt Q86W42), the thermal stability z-score in the experiment with lipoamide (setting [1]) came out at 0.337; with lipoamide (arsenate co-treatment: none), 0.402; with potassium arsenate, 0.429.

For the target HNRNPA0 (UniProt Q13151), the figures for the thermal stability z-score with lipoamide (setting [1]), in the experiment with lipoamide (arsenate co-treatment: none) and with potassium arsenate were -1.04, -0.776 and -0.778, respectively.

As for MMACHC (UniProt Q9Y4U1), the values for the thermal stability z-score with lipoamide (setting [1]), with lipoamide (arsenate co-treatment: none) and with potassium arsenate were -0.0163, -0.159 and -0.12, respectively.

Turning to ATG13 (UniProt O75143), the values for the thermal stability z-score with lipoamide (setting [1]), in the experiment with lipoamide (arsenate co-treatment: none) and with potassium arsenate were -0.00854, 0.21 and 0.699, respectively.

As for MTG2 (UniProt Q9H4K7), the thermal stability z-score is -0.0209 with lipoamide (setting [1]), 0.00401 with lipoamide (arsenate co-treatment: none) and 0.127 with potassium arsenate.

For MSH2 (UniProt P43246), the thermal stability z-score is -0.271 with lipoamide (setting [1]), -0.178 with lipoamide (arsenate co-treatment: none) and -0.565 in the experiment with potassium arsenate.

In the case of COMMD2 (UniProt Q86X83), the thermal stability z-score in the experiment with lipoamide (setting [1]) is 0.00791; in the experiment with lipoamide (arsenate co-treatment: none) it was -0.169; with potassium arsenate it was -0.00764.

SASS6 (UniProt Q6UVJ0): the results for the thermal stability z-score with lipoamide (setting [1]), with lipoamide (arsenate co-treatment: none) and in the experiment with potassium arsenate were -0.579, -0.207 and -0.481, respectively.

Turning to TPX2 (UniProt Q9ULW0), the results for the thermal stability z-score in the experiment with lipoamide (setting [1]), with lipoamide (arsenate co-treatment: none) and with potassium arsenate were 0.967, 0.322 and 0.448, respectively.

For SPCS2 (UniProt Q15005), the thermal stability z-score with lipoamide (setting [1]) was -0.33; with lipoamide (arsenate co-treatment: none) it was -0.411; with potassium arsenate it was -0.373.

Consider PAXBP1 (UniProt Q9Y5B6), for which the thermal stability z-score is 0.125 with lipoamide (setting [1]), 0.182 in the experiment with lipoamide (arsenate co-treatment: none) and 0.0461 with potassium arsenate.

For the target TMEM208 (UniProt Q9BTX3), the thermal stability z-score with lipoamide (setting [1]) is 0.0799; with lipoamide (arsenate co-treatment: none), -0.132; with potassium arsenate it was -0.159.

NUP37 (UniProt Q8NFH4): the results for the thermal stability z-score with lipoamide (setting [1]), in the experiment with lipoamide (arsenate co-treatment: none) and with potassium arsenate were 0.338, -0.0489 and 0.82, respectively.

For IGF2BP2 (UniProt Q9Y6M1), the thermal stability z-score in the experiment with lipoamide (setting [1]) is -0.00758; with lipoamide (arsenate co-treatment: none) it was 0.044; with potassium arsenate, -0.165.

For CLPTM1 (UniProt O96005), the thermal stability z-score is -3.11 in the experiment with lipoamide (setting [1]), -2.81 with lipoamide (arsenate co-treatment: none) and 0.0364 in the experiment with potassium arsenate.

Turning to GCDH (UniProt Q92947), the thermal stability z-score is 0.711 with lipoamide (setting [1]), 0.198 in the experiment with lipoamide (arsenate co-treatment: none) and -0.202 with potassium arsenate.

For the target ATP6V0A1 (UniProt Q93050), the thermal stability z-score worked out at 0.0809 with lipoamide (setting [1]), 0.332 with lipoamide (arsenate co-treatment: none) and 0.705 with potassium arsenate.

On to MRPL27 (UniProt Q9P0M9), for which the thermal stability z-score was -0.0242 with lipoamide (setting [1]), 0.00566 with lipoamide (arsenate co-treatment: none) and -0.0764 in the experiment with potassium arsenate.

Take REXO4 (UniProt Q9GZR2): the thermal stability z-score is -0.103 in the experiment with lipoamide (setting [1]), -0.118 with lipoamide (arsenate co-treatment: none) and -0.149 with potassium arsenate.

Take UROS (UniProt P10746): the thermal stability z-score was -0.306 with lipoamide (setting [1]), -0.445 in the experiment with lipoamide (arsenate co-treatment: none) and -2.43 with potassium arsenate.

Consider NME4 (UniProt O00746), for which the thermal stability z-score is -1.03 in the experiment with lipoamide (setting [1]), -1.25 in the experiment with lipoamide (arsenate co-treatment: none) and -1.86 in the experiment with potassium arsenate.

These data come from the supplement of paper PMC12463676, “Small-molecule dissolution of stress granules by redox modulation benefits ALS models” (Nature Chemical Biology, 2025).
